Measurements taken from patent publication US4683291A, “Platelet binding inhibitors” (Scripps Clinic and Research Foundation, priority 1985, dated 1987).
Non-standard residues stand in square brackets, D forms with d. Residues, ends and D or L forms follow the SMILES beside them. No end group written: not given here.

Molecular target: T1, platelet receptor, the GPIIb/IIIa complex (Homo sapiens, UniProt P05106+P08514)
T1 construct: Platelets were isolated from normal platelet-rich plasma and washed by the albumin density gradient technique; endogenous in cells; host or cells: washed platelets from normal platelet-rich plasma, thrombin-stimulated
Assay: Inhibition of 125I-fibrinogen binding to thrombin-stimulated washed platelets
Conditions: fibrinogen-platelet binding; read-out: IC50
Protocol: Peptides were stored in the lyophilized state and dissolved in distilled water immediately before use. One-tenth volume of 10x modified Tyrode buffer was added before mixing with the platelet suspension. Platelets were isolated from normal platelet-rich plasma and washed by the albumin density gradient technique. Fibrinogen was purified following precipitation with glycine or polyethylene glycol 1000, and radiolabeled with ^125 I using Iodogen (Pierce). […] In each experimental mixture, platelets in modified Tyrode buffer were stimulated with human alpha-thrombin at 22°-25° C. for 10 minutes (3.125×10^11 platelets/L and 0.25 NIHU/ml of thrombin). Hirudin (Sigma) was then added at a 25-fold excess (V/V) for 5 minutes before the addition of ^125 I-fibrinogen and the peptide was then tested. After these additions, the final platelet count in the mixture was 1×10^11 /L, and fibrinogen was 0.176 micromolar. Separation of bound from free ligand was achieved by centrifuging 50 microliters of the mixture through 200 microliters of 20% sucrose at 12,000 g for 4 minutes. The platelet pellet was separated from the rest of the mixture, and the platelet-bound radioactivity was then determined. Non-specific binding was measured in mixtures containing a 75-fold excess of unlabeled fibrinogen. […] Each peptide was tested at six different concentrations, and the IC50 was derived from a plot of residual fibrinogen binding versus log of peptide concentration.

With “KRKRKRKRRGDV [Lys--Arg--Lys--Arg--Lys--Arg--Lys--Arg--Arg--Gly--Asp--Val]” the IC50 was 0.4 µM.

Same assay, conditions: published peptides; read-out: IC50

HHLGGAKQAGDV [reference compound] showed an IC50 of 48 to 83 µM.

Same assay, conditions: read-out: Typical IC50 (micromolar) IC50

In order of falling IC50:
1. HHLGGAKQRGDV [His--His--Leu--Gly--Gly--Ala--Lys--Gln--Arg--Gly--Asp--Val]  14.5 µM
2. HHLGGKKQRGDV [His--His--Leu--Gly--Gly--Lys--Lys--Gln--Arg--Gly--Asp--Val]  13.2 µM
3. HHLRGKKQRGDV [His--His--Leu--Arg--Gly--Lys--Lys--Gln--Arg--Gly--Asp--Val]  11.2 µM
4. HHLGGRKQRGDV [His--His--Leu--Gly--Gly--Arg--Lys--Gln--Arg--Gly--Asp--Val]  6.3 µM
5. HHLRGRKQRGDV [His--His--Leu--Arg-- Gly--Arg--Lys--Gln--Arg--Gly--Asp--Val]  6.2 µM
6. HHKRKRKQRGDS [His--His--Lys--Arg--Lys--Arg--Lys--Gln--Arg--Gly--Asp--Ser]  6.2 µM
7. HHLGRRKQRGDV [His--His--Leu--Gly--Arg--Arg--Lys--Gln--Arg--Gly--Asp--Val]  5.4 µM
8. HHLRKRKQRGDV [His--His--Leu--Arg--Lys--Arg--Lys--Gln--Arg--Gly--Asp--Val]  4.4 µM
9. KKKKKKKKRGDV [Lys--Lys--Lys--Lys--Lys--Lys--Lys--Lys--Arg--Gly--Asp--Val]  4.1 µM
10. HHKRKRKQRGDV [His--His--Lys--Arg--Lys--Arg--Lys--Gln--Arg--Gly--Asp--Val]  3.3 µM
11. HHKRKRKRRGDS [His--His--Lys--Arg--Lys--Arg--Lys--Arg--Arg--Gly--Asp--Ser]  3.1 µM
12. CC(C)[C@H](NC(=O)[C@H](CC(=O)O)NC(=O)CNC(=O)[C@H](CCCNC(=N)N)NC(=O)[C@H](CCC(N)=O)NC(=O)[C@H](CCCCN)NC(=O)[C@H](CCCNC(=N)N)NC(=O)CNC(=O)CNC(=O)[C@@H](C)NC(=O)[C@H](Cc1c[nH]cn1)NC(=O)[C@@H](N)Cc1c[nH]cn1)C(=O)O [His--His--D-Ala--Gly--Gly--Arg--Lys--Gln--Arg--Gly--Asp--Val] (H-HH[dA]GGRKQRGDV-OH)  2.8 µM
13. CC(C)[C@H](NC(=O)[C@H](CC(=O)O)NC(=O)CNC(=O)[C@H](CCCNC(=N)N)NC(=O)[C@H](CCC(N)=O)NC(=O)[C@H](CCCCN)NC(=O)[C@H](CCCNC(=N)N)NC(=O)[C@H](CCCCN)NC(=O)[C@H](CCCNC(=N)N)NC(=O)[C@@H](C)NC(=O)[C@H](Cc1c[nH]cn1)NC(=O)[C@@H](N)Cc1c[nH]cn1)C(=O)O [His--His--D-Ala--Arg--Lys--Arg--Lys--Gln--Arg--Gly--Asp--Val] (H-HH[dA]RKRKQRGDV-OH)  2.2 µM
14. HHKKKKKKRGDV [His--His--Lys--Lys--Lys--Lys--Lys--Lys--Arg--Gly--Asp--Val]  1.6 µM
15. HHRRRRRRRGDV [His--His--Arg--Arg--Arg--Arg--Arg--Arg--Arg--Gly--Asp--Val]  1.3 µM
16. RRRRRRRRRGDV [Arg--Arg--Arg--Arg--Arg--Arg--Arg--Arg--Arg--Gly--Asp--Val]  0.2 µM

Molecular target: T1, platelet receptor, the GPIIb/IIIa complex
Assay: not given
Conditions: increasing fibrinogen concentrations; earlier findings; cited from earlier work

For “Gly-Pro-Arg-Pro (GPRP; printed: Gly-Pro-Arg-Pro)”, the “inhibitory effect on increasing the fibrinogen concentration” value is given as “increase with increasing fibrinogen concentrations”.
